A short description of this data set: in vitro. As to conditions: human, hela cells, % viability.

From paper PMC12040169 (PLOS Biology, 2025) come the findings set out here.

As usually defined, the viability is a read-out of living cells in per cent, often relative to untreated cells.

With `Cc1nc(SCc2cccc(C(=O)O)c2)nc2c1CCCC2` [CBK266997], the viability at 28.5 h, 10 µM is 87.3%. For the compound `Cc1cc(C(=O)O)ccc1-c1ccc(/C=C/c2[nH]c(=O)[nH]c(=O)c2[N+](=O)[O-])o1` [CBK266998], the viability at 28.5 h, 10 µM was found to be 97.3%. For `COc1ccc(CCNC(=S)n2cc(C)cn2)cc1OC` [CBK267001], the viability at 28.5 h, 10 µM was 89%. In the case of `Cc1ccc(NC(=O)Cn2cnc3c(=O)n(C)c(=O)n(C)c32)c(O)c1` [CBK267002] it was 102%.

Turning to `CCOC(=O)COc1c(Cl)cc(/C=C/c2[nH]c(=O)[nH]c(=O)c2[N+](=O)[O-])cc1Cl` [CBK267003], the viability at 28.5 h, 10 µM came out at 91.2%. For `O=C(Nc1cc(Cl)ccc1Cl)C1CN(S(=O)(=O)c2ccccc2)CCN1S(=O)(=O)c1ccccc1` (stereo not shown) [CBK267004], the viability at 28.5 h, 10 µM turned out to be 88.7%.

Regarding `COc1ccc(C)cc1N(CC(=O)Nc1ccc(F)c(F)c1)S(C)(=O)=O` [CBK267006], the viability at 28.5 h, 10 µM was found to be 96.5%. Next, `CC(=O)Nc1ccc(S(=O)(=O)N2CCN(c3cc4[nH]c(=O)[nH]c4cc3[N+](=O)[O-])CC2)cc1` [CBK267013]: 97.7%; `O=C(NCc1ccccn1)Nc1ccc2c(c1)OCO2` [CBK267014]: 97.1%; `CN(CC(=O)N1CCN(Cc2ccc3c(c2)OCO3)CC1)S(=O)(=O)c1ccc2ccccc2c1` [CBK267016]: 108%. Next, `O=S(=O)(c1ccc2ccccc2c1)N1CCN(CCCOc2ccccc2Cl)CC1` [CBK267018]: 106%; `Cc1cccc(C)c1NC(=O)CC(C(=O)O)N(C)C` (stereo not shown) [CBK267022]: 90.9%; `COc1ccc(C)cc1NC(=S)NCc1cnn(C)c1` [CBK267025]: 106%. Next, `CCOc1ccccc1NC(=O)NCc1cccnc1` [CBK267026]: 107%; `Nc1ncn(Cc2ccccc2)c2nc(SCC(=O)O)nc1-2` [CBK267027]: 99.2%. For `COC(=O)c1c(NC(=S)NCc2cccnc2)sc(C)c1C` [CBK267029], the viability at 28.5 h, 10 µM is 89.2%.

As for `Cc1cc(=O)oc2cc(NC(=S)NNC(=O)C(C)Oc3ccc4c(c3)CCC4)ccc12` (stereo not shown) [CBK267031], the viability at 28.5 h, 10 µM stood at 91.4%. `CCn1cc(NC(=S)Nc2sc3c(c2C(=O)OC)CCC(C)C3)c(C(N)=O)n1` (stereo not shown) [CBK267032]: the viability at 28.5 h, 10 µM came to 105%. On to `O=C(O)Cn1nnc(-c2ccc(OCc3cccc(C(F)(F)F)c3)cc2)n1` [CBK267034], for which the viability at 28.5 h, 10 µM turned out to be 97.7%.

Regarding `Cn1c(SCC(=O)Nc2ccc(F)cc2)nnc1-c1cccnc1` [CBK267035], the viability at 28.5 h, 10 µM was determined as 94.7%. Next, `O=C(O)c1ccc(CNC(=S)Nc2ccc([N+](=O)[O-])cc2)cc1` [CBK267037]: 92.9%; `CCn1cc(CN(C)C(=S)Nc2cccc(C(C)=O)c2)c(C)n1` [CBK267040]: 106%; `COc1cc([N+](=O)[O-])ccc1NC(=S)Nc1cccc(S(=O)(=O)N2CCOCC2)c1` [CBK267042]: 96.9%. For `CC(=O)c1c(C)oc2ccc(N(C(=O)c3cccc([N+](=O)[O-])c3)S(=O)(=O)c3cccc4cccnc34)cc12` [CBK267044], the viability at 28.5 h, 10 µM was 70.2%.

As for `O=S(=O)(Nc1ncccn1)c1ccc(NC(=S)Nc2ccc3c(c2)OCO3)cc1` [CBK267046], the viability at 28.5 h, 10 µM came out at 89%.

For the compound `COC(=O)c1cc(C)sc1NC(=S)Nc1ccccc1[N+](=O)[O-]` [CBK267047], the viability at 28.5 h, 10 µM was 99.9%. Next, `S=C(NCCc1ccccc1)Nc1ccc2c(c1)OCCO2` [CBK267048]: 110%; `Cc1cccnc1NC(=S)Nc1ccc(S(N)(=O)=O)cc1` [CBK267049]: 111%.

Regarding `CC(C)N(Cc1nc(-c2ccc(Cl)cc2)no1)S(=O)(=O)c1cccc([N+](=O)[O-])c1` [CBK267050], the viability at 28.5 h, 10 µM turned out to be 83.6%. Next, `COC(=O)c1c(NC(=S)NNC(=O)c2nn(C)c(C)c2Br)sc2c1CCC(C)C2` (stereo not shown) [CBK267052]: 93.9%; `COC(=O)c1c(NC(=S)Nc2cccc(S(=O)(=O)N3CCOCC3)c2)sc2c1CCC2` [CBK267054]: 93.8%; `Cc1cc(=O)oc2cc(NC(=S)NNC(=O)C(C)Sc3nc4ccccc4s3)ccc12` (stereo not shown) [CBK267056]: 102%.

For the compound `COC(=O)c1ccc(N/C(C)=C/C(=O)c2ccc(C)o2)cc1` [CBK267057], the viability at 28.5 h, 10 µM amounted to 115%. `COc1ccc(NC(=O)Nc2ccccc2C(N)=O)cc1OC` [CBK267061]: the viability at 28.5 h, 10 µM came to 94.1%. Consider `O=C(O)Cc1ccc(NC(=S)Nc2cccc(Cl)c2Cl)cc1` [CBK267064], for which the viability at 28.5 h, 10 µM was determined as 107%.

Take `O=C(CC(NCCO)C(=O)O)Nc1cccc(C(F)(F)F)c1` (stereo not shown) [CBK267065]: the viability at 28.5 h, 10 µM was determined as 109%. In the case of `Cn1cc(I)c(C(=O)NNC(=S)Nc2ccc(S(N)(=O)=O)cc2)n1` [CBK267066] it was 106%.

As to `O=[N+]([O-])c1ccc(S(=O)(=O)CC(CN2CCCCC2)N2CCCCC2)cc1` (stereo not shown) [CBK267070], the viability at 28.5 h, 10 µM was 100%. For the compound `COc1cc(C=O)ccc1Oc1nnnn1-c1ccc(C(=O)O)cc1` [CBK267071], the viability at 28.5 h, 10 µM turned out to be 95.5%. In the case of `CC(NC(=S)Nc1ccc(S(N)(=O)=O)cc1)c1ccncc1` (stereo not shown) [CBK267073] it was 111%. Turning to `CCn1c2ccccc2n2c(SC(C)C(=O)O)nnc12` (stereo not shown) [CBK267079], the viability at 28.5 h, 10 µM came to 103%. Turning to `NS(=O)(=O)c1ccc(NC(=S)Nc2nn(Cc3ccc(Cl)c(Cl)c3)cc2Br)cc1` [CBK267082], the viability at 28.5 h, 10 µM worked out at 94.4%. `Cc1cc(NC(=O)C(=O)NC(C)c2ccccc2)ccc1Br` (stereo not shown) [CBK267084]: the viability at 28.5 h, 10 µM was determined as 96.3%.

As to `O=S(=O)(CC(CN1CCCCC1)N1CCCCC1)c1ccc2ccccc2c1` (stereo not shown) [CBK267087], the viability at 28.5 h, 10 µM came to 100%. In the case of `CCc1c(C)sc(NC(=S)Nc2cnccn2)c1C(=O)OC` [CBK267088], the viability at 28.5 h, 10 µM amounted to 96.5%. `CC(=O)Nc1cccc(NC(=S)Nc2ccc(S(N)(=O)=O)cc2)c1` [CBK267091]: the viability at 28.5 h, 10 µM amounted to 98.4%.

On to `COc1cc([N+](=O)[O-])ccc1NC(=O)NCc1ccc(C(=O)O)cc1` [CBK267092], for which the viability at 28.5 h, 10 µM is 87.1%. In the case of `O=C(Nc1ccc(N2CCN(Cc3ccccc3)CC2)cc1)c1cncc(Br)c1` [CBK267093] it was 85%. As for `COC(=O)c1sc2cc(NC(=S)NCc3ccc(S(N)(=O)=O)cc3)ccc2c1Cl` [CBK267094], the viability at 28.5 h, 10 µM came out at 81.7%. In the case of `COc1ccc(C)cc1NC(=O)NC1CCN(Cc2ccccc2)CC1` [CBK267095] it was 99.2%; in that of `O=C(c1ccco1)N1CCN(C(=S)Nc2ccc(S(=O)(=O)Nc3ncccn3)cc2)CC1` [CBK267096], 104%; in that of `N#CCCN(CCC#N)C(=O)CN1C(=O)c2ccccc2C1=O` [CBK267100], 89%. Next, `CCC(C)c1ccc(NC(=S)NCCn2cc(Cl)cn2)cc1` (stereo not shown) [CBK267101]: 90.7%; `NS(=O)(=O)c1ccc(NC(=S)NNC(=S)Nc2ccc(F)cc2F)cc1` [CBK267102]: 93.3%. On to `O=C(CCc1ccc(O)c(O)c1)NNC(=S)Nc1ccccc1C(F)(F)F` [CBK267104], for which the viability at 28.5 h, 10 µM worked out at 94.2%.
